# Source: PubChem BioAssay (NCI)
#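 Step 1: Grow cells in 96-well plates. Step 2: Expose to compound for 48 hours at 5 concentrations. Step 3: Interpolate endpoints linearly; if unreached, use highest concentration. TGI denotes the concentration required for complete inhibition of growth.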
# Assays:
# Assay in all cases: NCI tumour cell line growth inhibition, 48 h
# OVCAR-5 ovarian = tested on: OVCAR-5 ovarian
# A549 NSCLC = tested on: A549 NSCLC
# COLO 205 colon = tested on: COLO 205 colon
# ACHN renal = tested on: ACHN renal
# MDA-MB-231 breast = tested on: MDA-MB-231 breast
# U251 CNS = tested on: U251 CNS
# RPMI-8226 leukemia = tested on: RPMI-8226 leukemia
# BT-549 breast = tested on: BT-549 breast
# HCC-2998 colon = tested on: HCC-2998 colon
# MDA-MB-435 = tested on: MDA-MB-435
# MALME-3M melanoma = tested on: MALME-3M melanoma
# SF-295 CNS = tested on: SF-295 CNS
# SK-MEL-5 melanoma = tested on: SK-MEL-5 melanoma
# SNB-19 CNS = tested on: SNB-19 CNS
# HL-60(TB) leukemia = tested on: HL-60(TB) leukemia
# UACC-62 melanoma = tested on: UACC-62 melanoma
# PC-3 prostate = tested on: PC-3 prostate
# SNB-75 CNS = tested on: SNB-75 CNS
# NCI-H522 lung = tested on: NCI-H522 lung
# HOP-92 NSCLC = tested on: HOP-92 NSCLC
SMILES,TGI (OVCAR-5 ovarian),TGI (A549 NSCLC),TGI (COLO 205 colon),TGI (ACHN renal),TGI (MDA-MB-231 breast),TGI (U251 CNS),TGI (RPMI-8226 leukemia),TGI (BT-549 breast),TGI (HCC-2998 colon),TGI (MDA-MB-435),TGI (MALME-3M melanoma),TGI (SF-295 CNS),TGI (SK-MEL-5 melanoma),TGI (SNB-19 CNS),TGI (HL-60(TB) leukemia),TGI (UACC-62 melanoma),TGI (PC-3 prostate),TGI (SNB-75 CNS),TGI (NCI-H522 lung),TGI (HOP-92 NSCLC)
O=C1OC[C@@H]2Cc3cc4c(cc3[C@H](c3ccc5c(c3)OCO5)[C@@H]12)OCO4,> 25 µM,> 25 µM,> 25 µM,> 25 µM,> 25 µM,> 25 µM,> 25 µM,> 25 µM,> 25 µM,> 25 µM,> 25 µM,> 25 µM,> 25 µM,> 25 µM,> 25 µM,–,–,–,–,–
S=C(c1c[nH]c2ccccc12)N1CCOCC1,> 100 µM,–,> 100 µM,> 100 µM,> 100 µM,> 100 µM,> 100 µM,> 100 µM,–,> 100 µM,> 100 µM,> 100 µM,> 100 µM,> 100 µM,> 100 µM,> 100 µM,> 100 µM,74 µM,–,–
Cc1cc2nc3c(C#N)c(-c4ccccc4)cc(Nc4ccc(Cl)cc4)n3c2cc1C,> 100 µM,> 100 µM,> 100 µM,> 100 µM,> 100 µM,> 100 µM,> 100 µM,> 100 µM,> 100 µM,> 100 µM,> 100 µM,> 100 µM,> 100 µM,> 100 µM,–,–,> 100 µM,> 100 µM,> 100 µM,–
CC(=O)Nc1cc(C(=O)Nc2cc(C(=O)N3CC(CCl)c4c3cc(N)c3ccccc43)nn2C)nn1C (stereo not given),17.3 µM,2.85 µM,–,0.0892 µM,0.76 µM,0.856 µM,1.41 µM,0.883 µM,0.491 µM,0.281 µM,0.267 µM,4.41 µM,1.23 µM,3.14 µM,< 0.0344 µM,0.0631 µM,–,0.0775 µM,0.0181 µM,0.1 µM
CS(=O)(=O)Nc1ccc(N2Cc3cnc4ccc5[nH]ccc2c5c34)cc1,84.5 µM,> 100 µM,32.2 µM,> 100 µM,37.5 µM,36.5 µM,48.1 µM,51.3 µM,–,31.5 µM,19.1 µM,> 100 µM,29 µM,42 µM,64.4 µM,35.9 µM,42 µM,–,29.5 µM,63.6 µM
CCCCCN=Cc1c(O)c(O)c(C(C)C)c2cc(C)c(-c3c(C)cc4c(C(C)C)c(O)c(O)c(C=NCCCCC)c4c3O)c(O)c12,> 100 µM,> 100 µM,9.15 µM,31.3 µM,65.1 µM,18 µM,> 100 µM,38.7 µM,35.9 µM,17.8 µM,33.1 µM,–,28.1 µM,18.8 µM,22.2 µM,33 µM,41.1 µM,–,25.2 µM,14.6 µM
Cc1ccc(/C=N/n2c(=O)[nH]c3ccccc3c2=O)cc1,> 100 µM,> 100 µM,> 100 µM,> 100 µM,> 100 µM,> 100 µM,> 100 µM,> 100 µM,–,> 100 µM,–,> 100 µM,> 100 µM,> 100 µM,> 100 µM,> 100 µM,> 100 µM,–,–,> 100 µM
CCSc1n/c(=C\c2ccco2)c2nnnn12,> 100 µM,> 100 µM,> 100 µM,> 100 µM,> 100 µM,> 100 µM,> 100 µM,> 100 µM,> 100 µM,> 100 µM,> 100 µM,> 100 µM,> 100 µM,> 100 µM,–,> 100 µM,> 100 µM,> 100 µM,> 100 µM,> 100 µM
C[N+](C)([O-])CCC=C1c2ccccc2CCc2ccccc21,> 100 µM,> 100 µM,43.6 µM,> 100 µM,68 µM,33.8 µM,34.5 µM,> 100 µM,–,38.1 µM,45.4 µM,70 µM,34.3 µM,> 100 µM,30.6 µM,41.2 µM,86.3 µM,75.4 µM,34.4 µM,94.4 µM
CC(=O)OCc1cc(CCC(=O)NCCNc2c3ccccc3nc3ccccc23)cc(COC(C)=O)c1O[Si](C)(C)C(C)(C)C,29.1 µM,24.4 µM,15.9 µM,30.6 µM,11.6 µM,19.7 µM,5.77 µM,34.2 µM,–,8.06 µM,25.6 µM,11.7 µM,–,31.2 µM,6.2 µM,19.5 µM,29.3 µM,–,21.8 µM,22.7 µM
Cc1cc(N(CCC#N)CCC#N)ccc1/C(N=Nc1ccc([N+](=O)[O-])cc1)=N\NC(=O)c1cc(Cl)ccc1C(=O)c1ccccc1,> 100 µM,> 100 µM,40.6 µM,> 100 µM,91 µM,> 100 µM,38.4 µM,> 100 µM,30.3 µM,> 100 µM,31.1 µM,> 100 µM,27.3 µM,> 100 µM,–,36.9 µM,83.3 µM,> 100 µM,6.17 µM,–
Clc1c(Cl)c(Cl)c2nn(C3CCCO3)nc2c1Cl (stereo not given),> 100 µM,> 100 µM,> 100 µM,–,> 100 µM,> 100 µM,–,80.5 µM,> 100 µM,> 100 µM,> 100 µM,> 100 µM,> 100 µM,> 100 µM,–,> 100 µM,> 100 µM,–,> 100 µM,–
Nc1nc(Cl)c(N)c(NC23CC4CC(CC(C4)C2)C3)n1,2.84 µM,6.16 µM,3.13 µM,4.69 µM,3.83 µM,3.06 µM,5.02 µM,6.76 µM,7.89 µM,3.41 µM,10.1 µM,11.3 µM,3.82 µM,3.42 µM,–,3.64 µM,2.97 µM,4.91 µM,4.26 µM,> 19.9 µM
C[C@@H]1C[C@H]2[C@@H]3CCC4=CC(=O)C=C[C@]4(C)[C@@]3(Cl)[C@@H](Cl)C[C@]2(C)[C@@]1(O)C(=O)COP(=O)(O)O,> 100 µM,> 100 µM,> 100 µM,> 100 µM,> 100 µM,> 100 µM,> 100 µM,> 100 µM,> 100 µM,> 100 µM,> 100 µM,> 100 µM,> 100 µM,> 100 µM,–,> 100 µM,> 100 µM,> 100 µM,> 100 µM,> 100 µM
CN(c1ccc(Cl)cc1)S(=O)(=O)c1cccc([N+](=O)[O-])c1,> 100 µM,> 100 µM,> 100 µM,> 100 µM,> 100 µM,> 100 µM,> 100 µM,> 100 µM,> 100 µM,> 100 µM,> 100 µM,> 100 µM,72.8 µM,> 100 µM,–,> 100 µM,> 100 µM,> 100 µM,> 100 µM,–
N#CSC#Cc1ccc(C#CSC#N)cc1,34.9 µM,33.7 µM,34.6 µM,30.1 µM,35.2 µM,41.8 µM,> 100 µM,32.4 µM,34.3 µM,45.4 µM,51.9 µM,43.4 µM,33.2 µM,47.7 µM,> 100 µM,32.5 µM,29.5 µM,–,29 µM,26 µM
COc1ccc(N=C2SC(=N/N=c3\sc4ccccc4n3C)SC2=Nc2ccc(OC)cc2)cc1,> 100 µM,> 100 µM,> 100 µM,> 100 µM,66 µM,> 100 µM,> 100 µM,> 100 µM,> 100 µM,> 100 µM,> 100 µM,> 100 µM,> 100 µM,> 100 µM,–,> 100 µM,> 100 µM,94.5 µM,> 100 µM,> 100 µM
O=[N+]([O-])c1ccc(/C=N/n2c(CO)nc3ccccc32)o1,24.7 µM,36.5 µM,10.6 µM,17.3 µM,20.6 µM,37.2 µM,19.6 µM,27.6 µM,–,13.9 µM,5.44 µM,25.2 µM,6.78 µM,30.7 µM,9.41 µM,21.9 µM,26.1 µM,57.1 µM,4.43 µM,14.8 µM
O=C1N=c2ccccc2=C1c1c(O)[nH]c2ccccc12,12.4 µM,> 100 µM,> 100 µM,37.1 µM,> 100 µM,24.1 µM,> 100 µM,96.2 µM,63.5 µM,> 100 µM,35.5 µM,> 100 µM,> 100 µM,67.4 µM,–,39.2 µM,26.2 µM,35 µM,25.6 µM,81.1 µM
CCOC(=O)C1(Cc2ccc3c(c2)CCC3)Cc2cc3c(cc2C1)CCC3,> 100 µM,> 100 µM,> 100 µM,> 100 µM,> 100 µM,> 100 µM,49.2 µM,> 100 µM,64.4 µM,> 100 µM,> 100 µM,70.8 µM,–,> 100 µM,> 100 µM,> 100 µM,> 100 µM,> 100 µM,75.5 µM,–
C=CCNC1=C2C[C@@H](C)C[C@@H](OC)[C@H](OC(=O)CCCCN)[C@H](C)/C=C(\C)[C@@H](OC(N)=O)[C@H](OC)/C=C\C=C(/C)C(=O)NC(=CC1=O)C2=O,34 µM,25.2 µM,16.6 µM,34 µM,27.7 µM,22.8 µM,35.1 µM,33.4 µM,13.6 µM,25.6 µM,19.6 µM,29.9 µM,25.5 µM,23.8 µM,30.3 µM,27.7 µM,–,15.2 µM,28.8 µM,35.7 µM
c1ccc2sc(C3(N4CCCC4)CCCCCC3)cc2c1,25.2 µM,43 µM,30.4 µM,60.7 µM,31 µM,30.9 µM,–,51.9 µM,27.1 µM,31.7 µM,–,30.4 µM,33.9 µM,29.9 µM,35.4 µM,31.1 µM,–,34.5 µM,33.3 µM,30 µM
CN(C)Cc1cc(C(=O)/C=C/c2ccc(Cl)cc2)cc(CN(C)C)c1O,54.5 µM,28.7 µM,10.7 µM,16.1 µM,23.5 µM,28 µM,42.6 µM,11.3 µM,34.1 µM,26.5 µM,24.8 µM,26 µM,27.6 µM,24.1 µM,22.9 µM,–,24.7 µM,44.4 µM,10.8 µM,–
O=C(CC(=O)Nc1cccc(C(=O)O)c1)Nc1cccc(C(=O)O)c1,–,> 100 µM,> 100 µM,> 100 µM,> 100 µM,> 100 µM,> 100 µM,> 100 µM,> 100 µM,> 100 µM,–,> 100 µM,> 100 µM,> 100 µM,> 100 µM,> 100 µM,> 100 µM,–,> 100 µM,> 100 µM
O=C(O)c1n[nH]nc1Cl,> 100 µM,> 100 µM,> 100 µM,> 100 µM,> 100 µM,> 100 µM,> 100 µM,> 100 µM,> 100 µM,> 100 µM,> 100 µM,> 100 µM,> 100 µM,–,> 100 µM,> 100 µM,> 100 µM,> 100 µM,> 100 µM,–
